Test results: PMC5827777, “Synthesis and biological evaluation of RGD and isoDGR peptidomimetic-α-amanitin conjugates for tumor-targeting” (Beilstein Journal of Organic Chemistry, 2018)
Like-named read-outs stand apart in the source and are kept apart here.

Assays:
[1] = test system: A549 cells (human lung carcinoma, αVβ3−); assay: cells; type: cell-based; settings: 96 hours treatment; triplicate; read-out: IC50 A549 (αVβ3−), inhibition of cell viability
Experimental: (§1) The cell lines were treated with different concentrations of the free drug α-amanitin and conjugates 7–11 for 96 hours. […]
(§2) described recently.[S1] The SNP profiles matched known profiles or were unique. The purity of the cell lines was validated using the Multiplex cell Contamination Test by Multiplexion (Heidelberg, Germany) as described recently.[S2] No mycoplasma, SMRV or interspecies contamination was detected. U87-MG, MDA-MB 468 and A549 cells were cultivated continuously for not more than 3 months in MEM Eagle´s, DMEM or Ham´s F12 medium, respectively, supplemented with 10% heat inactivated fetus calf serum, L-glutamine and antibiotics. Cell lines were maintained at 37 °C and 5% CO2 in a high humidity atmosphere.
(§3) Cell therapy and viability assay
(§4) Cell viability assays were performed in U87-MG, A549 and MDA-MB 468 cell lines according to the following procedure: 2 × 10^3 cells/well were plated in 96-well black clear bottom plates (Perkin Elmer) and incubated overnight. 1:5 serial dilutions of compounds 7–11 were prepared in cell culture media. The compounds were added to the cell culture and incubated for additional 96 h. Starting concentration of compounds 7–11 in the wells was 1 × 10−5 M and cell viability was determined with the CellTiterGlo 2.0 assay (Promega) in accordance to manufacturer’s instructions. The cell viability was calculated in relation to the non-treated controls for each cell line. All samples were measured in triplicate. Data analysis was carried out using software GraphPad Prism (GraphPad Software Inc., La Jolla, CA, USA). […]

[2] = test system: MDA-MB-468 cells (breast adenocarcinoma, αVβ3−); assay: cells; type: cell-based; settings: 96 hours treatment; triplicate; read-out: IC50 MDA-MB-468 (αVβ3−), inhibition of cell viability
Experimental: as §1, §2, §3, §4
[S1] F. Castro, W. G. Dirks, S. Fähnrich, A. Hotz-Wagenblatt, M. Pawlita, M. Schmitt, Int. J. Cancer […]
[S2] M. Schmitt, M. Pawlita, Nucleic Acids Res. 2009, 37, e119.

[3] = test system: U87 (αVβ3+, αVβ5+, αVβ6−, α5β1+); settings: read-out: IC50 U87, inhibition of cell viability, 96 hours
Excerpt: (§5) However, it should be noted that these cell lines overexpress other integrins (α5β1 in U87, αVβ6 in MDA-MB-468, and αVβ5 in both). […]
(§6) described recently.[S1] […] The purity of […]
(§7) the cell lines was validated using the Multiplex cell Contamination Test by Multiplexion (Heidelberg, Germany) as described recently.[S2]
(§8) U87-MG, MDA-MB 468 and A549 cells were cultivated continuously for not more than 3 months in MEM Eagle´s, DMEM or Ham´s F12 medium, respectively, supplemented with 10% heat inactivated fetus calf serum, L-glutamine and antibiotics. Cell lines were maintained at 37 °C and 5% CO2 in a high humidity atmosphere.
as §3
(§9) Cell viability assays were performed in U87-MG, A549 and MDA-MB 468 cell lines according to the following procedure: 2 × 10^3 cells/well were plated in 96-well black clear bottom plates (Perkin Elmer) and incubated overnight. […]
(§10) in cell culture media. The compounds were added to the cell culture and incubated for additional […]
(§11) was determined with the CellTiterGlo 2.0 assay (Promega) in accordance to manufacturer’s instructions. The cell viability was calculated in relation to the non-treated controls for each cell line. All samples were measured in triplicate.
(§12) All samples were measured in triplicate.

[4] = test system: MDA-MB-468 (αVβ3−, αVβ5+, αVβ6+, α5β1−); settings: read-out: IC50 MDA-MB-468, inhibition of cell viability, 96 hours
Excerpt: as §5, §6, §7, §8, §3, §9, §10, §11, §12

[5] = + 50-fold excess of cilengitide

## CC[C@H](C)[C@@H]1NC(=O)CNC(=O)[C@@H]2Cc3c([nH]c4cc(OCc5ccc(NC(=O)[C@H](C)NC(=O)[C@@H](NC(=O)CCCC(=O)NCc6ccc(CN7C(=O)[C@H]8CC(=O)N[C@H](C(=O)O)CC(=O)NCC(=O)N[C@@H](CCCNC(=N)N)C(=O)NC[C@H]7C(=O)N8)cc6)C(C)C)cc5)ccc34)[S@+]([O-])C[C@H](NC(=O)CNC1=O)C(=O)N[C@@H](CC(N)=O)C(=O)N1C[C@H](O)C[C@H]1C(=O)N[C@@H]([C@@H](C)[C@@H](O)CO)C(=O)N2 [Compound 10, cyclo[DKP-isoDGR]-Val-Ala-α-amanitin]
[1]
  IC50: 217 ± 98.3 nM
[2]
  IC50: 59 ± 23.4 nM
[3]; [5]
  IC50: 106 ± 11.6 nM
[3]; without cilengitide
  IC50: 107 ± 26.8 nM
[4]; [5]
  IC50: 259 ± 55.2 nM
[4]; without cilengitide
  IC50: 47 ± 21.1 nM
